# Results published in paper PMC11969544, “Structure-Based Mechanism and Specificity of Human Galactosyltransferase β3GalT5” (Journal of the American Chemical Society, 2025).
# B1: human β3GalT5 (β1,3-galactosyltransferase 5) (Homo sapiens) (protein)
# chain: FKEQSFVYKKDGNFLKLPDTDCRQTPPFLVLLVTSSHKQLAERMAIRQTWGKERMVKGKQLKTFFLLGTTSSAAETKEVDQESQRHGDIIQKDFLDVYYNLTLKTMMGIEWVHRFCPQAAFVMKTDSDMFINVDYLTELLLKKNRTTRFFTGFLKLNEFPIRQPFSKWFVSKSEYPWDRYPPFCSGTGYVFSGDVASQVYNVSKSVPYIKLEDVFVGLCLERLNIRLEELHSQPTFFPGGLRFSVCLFRRIVACHFIKPRTLLDYWQALENSRGEDCP
# notes: recombinant luminal catalytic domain Phe31-Pro308 (crystallised construct), transmembrane domain removed; N-glycosylated
# Tests used:
# [1] = target: T1, human β3GalT5 (β1,3-galactosyltransferase 5) (Homo sapiens, UniProt Q9Y2C3); experiment: X-ray crystallography (cocrystallisation); assay type: binding; settings: Mn2+; donor site; inert donor analogue
# T1 construct: gene B3GALT5; recombinant luminal catalytic domain Phe31-Pro308 (crystallised construct), transmembrane domain removed; N-glycosylated
# T1 sequence (Q9Y2C3 31-308): B1 chain
# [2] = target: T1, human β3GalT5 (β1,3-galactosyltransferase 5); experiment: X-ray crystallography; assay type: binding; settings: Mn2+; donor site; with Gb5 glycan bound
# [3] = target: T1, human β3GalT5 (β1,3-galactosyltransferase 5); experiment: galactosyltransfer kinetics (details in supplement); assay type: biochemical; settings: acceptor; donor UDP-Gal; crystal structure of the complex also solved
# [4] = substrate: CC(=O)N[C@H]1[C@H](O[C@H]2[C@@H](O)[C@@H](CO)O[C@H](O[C@H](C)[C@H](N)C(=O)O)[C@@H]2NC(C)=O)O[C@H](CO)[C@@H](O)[C@@H]1O; experiment: as above; assay type: biochemical, Homo sapiens; settings: acceptor; donor UDP-Gal; crystal structure of the complex also solved
# [5] = substrate: COC1O[C@H](CO)[C@H](O)[C@H](O[C@@H]2O[C@H](CO)[C@@H](O)[C@H](O)[C@H]2NC(C)=O)[C@H]1O; experiment: as above; assay type: biochemical, Homo sapiens; settings: acceptor; donor UDP-Gal; crystal structure of the complex also solved
molecule,measurement,setting,value
"O=c1ccn([C@@H]2O[C@H](COP(=O)(O)OP(=O)(O)O[C@H]3O[C@H](CO)[C@H](O)[C@H](O)[C@H]3F)[C@@H](O)[C@H]2O)c(=O)[nH]1 [UDP-2FGal, UDP-2-deoxy-2-fluoro-α-D-galactopyranose]",X-ray crystallography (cocrystallisation),[1],"employed an inert analog of the sugar nucleotide donor, UDP-2-deoxy-2-fluoro-α-D-galactopyranose (UDP-2FGal) for cocrystallization with β3GalT5"
O=c1ccn([C@@H]2O[C@H](COP(=O)(O)OP(=O)(O)O)[C@@H](O)[C@H]2O)c(=O)[nH]1 [UDP],X-ray crystallography,[2],β3GalT5 cocrystallized with UDP and soaked with the product Gb5 (SSEA3) glycan
CC(=O)N[C@H]1[C@H](O[C@H]2[C@@H](O)[C@@H](CO)O[C@H](O[C@@H]3[C@H](O)[C@@H](O)[C@H](O[C@H]4[C@H](O)[C@@H](O)C(O)O[C@@H]4CO)O[C@@H]3CO)[C@@H]2O)O[C@H](CO)[C@H](O)[C@@H]1O (some centres unmarked) [Gb4 glycan],Km,[3],2000 µM
B1,Km,[4],750 µM
same,Km,[5],500 µM
